Laboratory results: patent publication US6274715A, “Tricyclic erythromycin derivatives” (priority 1997, dated 2001)
≈ marks a conversion by molar mass, not a printed value.

Key:
Assay type in all cases: cell-based
[1] = system: PSEUDOMONAS AERUGINOSA BMH10; assay: In vitro antibacterial activity, MIC, BHI agar dilution; details: P. aeruginosa BMH10, unit assumed
[2] = system: PSEUDOMONAS AERUGINOSA DPHD-2862; assay: as above; details: P. aeruginosa DPHD-2862, unit assumed
[3] = system: STAPHYLOCOCCUS AUREUS A5177; assay: as above
[4] = system: STAPHYLOCOCCUS AUREUS CMX 553; assay: as above; details: S. aureus CMX 553, unit assumed
[5] = system: STAPHYLOCOCCUS EPIDERMIDIS 3519; details: S. epidermidis 3519; BHI agar; unit assumed
[6] = system: ACINETOBACTER CALCOACETICUS CMX 669; assay: In vitro antibacterial activity, MIC, BHI agar dilution; details: A. calcoaceticus CMX 669, unit assumed
[7] = system: STAPHYLOCOCCUS AUREUS A-5278; assay: as above; details: S. aureus A-5278, unit assumed
[8] = system: ENTEROBACTER AEROGENES ATCC 13048; assay: as above; details: E. aerogenes ATCC 13048, unit assumed
[9] = system: STAPHYLOCOCCUS AUREUS CMX 642A; assay: as above; details: S. aureus CMX 642A, unit assumed
[10] = system: ESCHERICHIA COLI SS; assay: as above; details: E. coli SS, unit assumed
[11] = system: STAPHYLOCOCCUS AUREUS 1775; assay: as above; details: S. aureus 1775, unit assumed
[12] = system: STAPHYLOCOCCUS AUREUS ATCC 6538P; assay: as above; details: S. aureus ATCC 6538P, 35-37° C., 20 to 24 hours, unit assumed
[13] = system: ESCHERICHIA COLI JUHL; details: E. coli JUHL; BHI agar; unit assumed
[14] = system: M[…] ATCC 4698; assay: In vitro antibacterial activity, MIC, BHI agar dilution; details: M. luteus ATCC 4698, unit assumed
Outline: (§1)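 MIC was read visually as the lowest drug level with no growth, a slight haze or sparsely isolated colonies relative to a compound-free growth control. Organisms were spotted at 1:100 dilution (1:10 for slow-growing strains) onto Brain Heart Infusion agar containing serial compound dilutions and incubated 20 to 24 hours at 35-37° C.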

[15] = system: STR[…] 508; assay: as above; details: S. agalactiae CMX 508, unit assumed
Outline: as §1

[16] = system: EN[…] ATCC 8043; assay: as above; details: E. faecium ATCC 8043, unit assumed
Outline: as §1

[17] = system: M[…] ATCC 9341; assay: as above; details: M. luteus ATCC 9341, unit assumed
Outline: as §1

[18] = system: STREPTOCOCCUS BOVIS A-5169; assay: as above; details: S. bovis A-5169, unit assumed
[19] = system: PSEUDOMONAS CEPACIA 296I; assay: as above; details: P. cepacia 296I, unit assumed
[20] = system: STAPHYLOCOCCUS AUREUS NCTC10649M; assay: as above; details: S. aureus NCTC10649M, unit assumed
[21] = system: KLEBSIELLA PNEUMONIAE ATCC 8045; assay: as above; details: K. pneumoniae ATCC 8045, unit assumed
[22] = system: CANDIDA ALBICANS CCH 442; assay: as above; details: C. albicans CCH 442, unit assumed
[23] = system: STREPTOCOCCUS PYOGENES EES61; assay: as above; details: S. pyogenes EES61, unit assumed
[24] = system: PSEUDOMONAS AERUGINOSA 5007; assay: as above; details: P. aeruginosa 5007, unit assumed
[25] = system: STREPTOCOCCUS PYOGENES 930; assay: as above; details: S. pyogenes 930, unit assumed
[26] = system: PSEUDOMONAS AERUGINOSA K799/61; assay: as above; details: P. aeruginosa K799/61, unit assumed
[27] = system: PSEUDOMONAS AERUGINOSA DPHD-5263; assay: as above; details: P. aeruginosa DPHD-5263, unit assumed
[28] = system: PROVIDENCIA STUARTII CMX 640; details: P. stuartii CMX 640; BHI agar; unit assumed
[29] = system: MYCOBACTERIUM SMEGMATIS ATCC 114; assay: In vitro antibacterial activity, MIC, BHI agar dilution; details: M. smegmatis ATCC 114, unit assumed
[30] = system: PSEUDOMONAS AERUGINOSA K799/WT; assay: as above; details: P. aeruginosa K799/WT, unit assumed
[31] = system: ESCHERICHIA COLI DC-2; assay: as above; details: E. coli DC-2, unit assumed
[32] = system: ESCHERICHIA COLI KNK 437; details: E. coli KNK 437; BHI agar; unit assumed
[33] = system: ESCHERICHIA COLI H560; assay: In vitro antibacterial activity, MIC, BHI agar dilution; details: E. coli H560, unit assumed

SMILES | MIC [1] | MIC [2] | MIC [4] | MIC [5] | MIC [6] | MIC [7] | MIC [8] | MIC [9] | MIC [10] | MIC [11] | MIC [12] | MIC [13] | MIC [14] | MIC [15] | MIC [16] | MIC [17] | MIC [18] | MIC [19] | MIC [20] | MIC [21] | also measured
CCC1OC(=O)C(C)C(=O)C(C)C(OC2OC(C)CC(N(C)C)C2O)C(C)(OC)CC(C)C2=NC(CN)CN3C(=O)OC1(C)C3C2C (stereo not drawn) [Example 16] | 50 µg/mL (≈ 75 µM) | > 100 µg/mL | 0.39 µg/mL (≈ 0.585 µM) | 0.2 µg/mL (≈ 0.3 µM) | 12.5 µg/mL (≈ 18.7 µM) | > 100 µg/mL | 12.5 µg/mL (≈ 18.7 µM) | 0.2 µg/mL (≈ 0.3 µM) | 0.1 µg/mL (≈ 0.15 µM) | > 100 µg/mL | 0.2 µg/mL (≈ 0.3 µM) | 12.5 µg/mL (≈ 18.7 µM) | 0.2 µg/mL (≈ 0.3 µM) | 0.05 µg/mL (≈ 0.075 µM) | 0.2 µg/mL (≈ 0.3 µM) | 0.02 µg/mL (≈ 0.03 µM) | 0.02 µg/mL (≈ 0.03 µM) | > 100 µg/mL | 0.2 µg/mL (≈ 0.3 µM) | 12.5 µg/mL (≈ 18.7 µM) | MIC ([3]; S. aureus A5177, unit assumed): 0.39 µg/mL (≈ 0.585 µM); MIC [22]: > 100 µg/mL; MIC [23]: 0.01 µg/mL (≈ 0.015 µM); MIC [24]: > 100 µg/mL; MIC [25]: > 100 µg/mL; MIC [26]: 0.39 µg/mL (≈ 0.585 µM); MIC [27]: > 100 µg/mL; MIC [28]: > 100 µg/mL; MIC [29]: 1.56 µg/mL (≈ 2.34 µM); MIC [30]: 100 µg/mL (≈ 150 µM); MIC [31]: 12.5 µg/mL (≈ 18.7 µM); MIC [32]: 12.5 µg/mL (≈ 18.7 µM); MIC [33]: 6.2 µg/mL (≈ 9.3 µM)
CC[C@H]1OC(=O)[C@H](C)C(=O)[C@H](C)[C@@H](O[C@@H]2O[C@H](C)C[C@H](N(C)C)[C@H]2O)[C@](C)(OC)C[C@@H](C)C2=N[C@H](COCc3ccc(C#N)cc3)CN3C(=O)O[C@@]1(C)[C@H]3[C@H]2C [Example 74] | > 100 µg/mL | > 100 µg/mL | 0.1 µg/mL (≈ 0.128 µM) | 0.2 µg/mL (≈ 0.255 µM) | 50 µg/mL (≈ 63.9 µM) | > 100 µg/mL | > 100 µg/mL | 0.2 µg/mL (≈ 0.255 µM) | 0.39 µg/mL (≈ 0.498 µM) | > 100 µg/mL | 0.2 µg/mL (≈ 0.255 µM) | > 100 µg/mL | 0.39 µg/mL (≈ 0.498 µM) | 0.02 µg/mL (≈ 0.0255 µM) | 0.02 µg/mL (≈ 0.0255 µM) | 0.02 µg/mL (≈ 0.0255 µM) | ≤ 0.005 µg/mL | 50 µg/mL (≈ 63.9 µM) | 0.1 µg/mL (≈ 0.128 µM) | > 100 µg/mL | MIC ([3]; S. aureus A5177): 0.1 µg/mL (≈ 0.128 µM); MIC [22]: > 100 µg/mL; MIC [23]: ≤ 0.005 µg/mL; MIC [24]: > 100 µg/mL; MIC [25]: > 100 µg/mL; MIC [26]: 3.1 µg/mL (≈ 3.96 µM); MIC [27]: > 100 µg/mL; MIC [28]: > 100 µg/mL; MIC [29]: 0.39 µg/mL (≈ 0.498 µM); MIC [30]: 100 µg/mL (≈ 128 µM); MIC [31]: 100 µg/mL (≈ 128 µM); MIC [32]: > 100 µg/mL; MIC [33]: 100 µg/mL (≈ 128 µM)
